Biological target: T1, Chk2 (Homo sapiens, UniProt O96017)
T1 construct: made in house; host or cells: E. coli BL21 Star (Invitrogen)
Assay: Chk2 inhibitor IMAP assay (high-throughput Chk2 screening assay)
Format: biochemical
Conditions: IMAP fluorescence polarization assay, 10 μM ATP
Experimental: Compounds set forth in Table 1 were tested in the Chk2 inhibitor IMAP assay described herein in Example 6.84. […] The letters given for the Chk2 EC50 values in Table 1 represent the following ranges: A=<100 nM; B=100-300 nM; C=300-1000 nM; D=1-10 μM; and E>10 μM.
Compounds can be screened for Chk2 inhibitory activity using a high-throughput screening assay based in the immobilized metal ion affinity-based fluorescence polarization (IMAP) assay developed by Molecular Devices. This assay is based on the high affinity binding of phosphate by immobilized metal (MIII) coordination complexes on nanoparticles. A fluorescein-labeled peptide substrate is used as the substrate for the kinase activity of Chk2 in the assay. The IMAP binding reagent stops the kinase reaction. The binding of the binding reagent results in a change in the rate of molecular motion of the peptide and causes an increase in the fluorescence polarization value observed for the fluorescein label attached to the end of the peptide. Thus, inhibition of Chk2 would result in a decrease in fluorescence polarization compared to control.
A specific protocol for screening Compounds for Chk2 inhibitory activity follows.
A Compound is supplied at 1 mM in 0.5 μl DMSO on 384 well plates (such as Greiner or Corning). After thawing, 5 μl DMSO is added to the drug plate. The drug plate is then incubated for 10 minutes to solubilize the Compound. An additional 19.5 μl of reaction buffer (10× stock prepared using 100 mM Tris-HCl, 100 mM MgCl2, 1% BSA, pH 7.2, stored at 4° C.)+1 mM DDT is added to bring the Compound to 4× final concentration. A positive control is also prepared at 4× final concentration. The following control wells are used: less enzyme control (all reagents except enzyme; 5 μl/well), less Compound control (all reagents except Compound; 5 μl/well), positive control (all reagents plus staurosporine at a final concentration of 5 μM; 5 μl/well).
Reagents are then added in the following order to give the following final concentration: 2.5 μl ATP/Chk2tide (Molecular Devices) (10 μM/100 nM final concentration), 1.25 μl Compound (5 μM final concentration inf 5.5% DMSO), and 1.25 μl Chk2 (1:500, 2.4 μg/mL final concentration).
Plates are covered and incubated at room temperature for 60 minutes.
IMAP binding reagent (Molecular Devices) is diluted 1:400 into binding buffer (Molecular Devices). 15 μl of this solution is then added to all wells and the plates are covered and incubated for 30 minutes.
Plates are read using a Tecan Ultra under the fluorescence polarization mode. Gain is set to the less enzyme and less Compound wells for each plate. Excitation 485 nm, emmission 535 nm, Z position 12519 and flashes 5 are used as settings. Raw data from the Tecan reader is imported into an access database for analysis.

T1 sequence (O96017 whole entry): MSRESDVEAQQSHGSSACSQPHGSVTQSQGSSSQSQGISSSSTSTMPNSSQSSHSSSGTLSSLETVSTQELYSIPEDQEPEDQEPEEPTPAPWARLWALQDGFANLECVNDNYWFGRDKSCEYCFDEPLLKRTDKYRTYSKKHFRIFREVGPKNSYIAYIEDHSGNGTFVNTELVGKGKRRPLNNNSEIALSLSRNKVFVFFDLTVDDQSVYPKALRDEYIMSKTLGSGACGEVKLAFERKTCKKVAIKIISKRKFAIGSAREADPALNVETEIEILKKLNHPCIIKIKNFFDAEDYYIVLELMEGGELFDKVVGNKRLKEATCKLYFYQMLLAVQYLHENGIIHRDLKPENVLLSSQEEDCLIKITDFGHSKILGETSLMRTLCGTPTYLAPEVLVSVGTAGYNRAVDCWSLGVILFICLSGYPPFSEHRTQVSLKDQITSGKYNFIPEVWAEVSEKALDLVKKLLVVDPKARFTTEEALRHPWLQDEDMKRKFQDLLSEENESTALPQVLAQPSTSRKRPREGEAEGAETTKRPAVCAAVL

Structure (SMILES) | EC50 [nM]
C/C(=N\NC(=N)N)c1ccc(NC(=O)Nc2ccc(/C(=N/NC(=N)N)c3ccccc3)cc2)cc1 [Compound 55] | > 10000
COC(=O)c1ccc(NC(=O)Nc2ccc(/C(C)=N/NC(=N)N)cc2)cc1 [Compound 56] | 1000 to 10000
C/C(=N\NC(=N)N)c1ccc(NC(=O)Nc2ccc(Cl)cc2)cc1 [Compound 57] | 1000 to 10000
C/C(=N\NC(=N)N)c1ccc(NC(=O)c2cc3ccccc3cn2)cc1 [Compound 58] | 1000 to 10000
C/C(=N/NC(=N)N)c1ccc(NC(=O)Nc2ccc(/C(C)=N/NC(=N)N)cc2)c2ccccc12 [Compound 60] | 1000 to 10000
C/C(=N/NC(=N)N)c1ccc(NC(=O)Nc2ccc(/C(C)=N/NC(=N)N)cc2)cc1C [Compound 61] | > 10000
CC(=NNC(=N)N)c1ccc(NC(=O)Nc2ccc(C(C)CNC(=N)N)cc2)cc1 (stereo not shown) [Compound 62] | > 10000
CSC(=N)N/N=C(\C)c1ccc(NC(=O)Nc2ccc(/C(C)=N/NC(=N)SC)cc2)cc1 [Compound 63] | 1000 to 10000
CSC(=N)N/N=C(\C)c1ccc(NC(=O)Nc2ccc(C(C)=O)cc2)cc1 [Compound 64] | > 10000
C/C(=N\N/C(=N\N)NN)c1ccc(NC(=O)Nc2ccc(/C(C)=N/N/C(=N\N)NN)cc2)cc1 [Compound 65] | 100 to 300
CC(=O)c1ccc(NC(=O)Nc2ccc(/C(C)=N/NC3=NCCN3)cc2)cc1 [Compound 66] | 100 to 300
C/C(=N\NC(=N)N)c1ccc(NC(=O)c2cc3cc(Cl)ccc3[nH]2)cc1 [Compound 67] | 1000 to 10000
C/C(=N\NC(=N)N)c1ccc(NC(=O)c2cc3cccc(/C(C)=N/NC(=N)N)c3[nH]2)cc1 [Compound 68] | 1000 to 10000
COc1cc([N+](=O)[O-])c2[nH]c(C(=O)Nc3ccc(/C(C)=N/NC(=N)N)cc3)cc2c1 [Compound 69] | < 100
CC(=O)c1ccc2[nH]c(C(=O)Nc3ccc(/C(C)=N/NC(=N)N)cc3)cc2c1 [Compound 71] | < 100
CC(=O)c1ccc(NC(=O)c2cc3cc(/C(C)=N/NC(=N)N)ccc3[nH]2)cc1 [Compound 72] | 300 to 1000
COc1cc2cc(C(=O)Nc3ccc(/C(C)=N/NC(=N)N)cc3)[nH]c2cc1OC [Compound 73] | 300 to 1000
COc1ccc2cc(C(=O)Nc3ccc(/C(C)=N/NC(=N)N)cc3)[nH]c2c1 [Compound 74] | 300 to 1000
COc1cccc2cc(C(=O)Nc3ccc(C(C)=NNC(=N)N)cc3)[nH]c12 [Compound 75] | 1000 to 10000
CC(=O)Nc1cccc2cc(C(=O)Nc3ccc(/C(C)=N/NC(=N)N)cc3)[nH]c12 [Compound 76] | 300 to 1000

Structure (SMILES) | EC50 [nM]
C/C(=N\NC(=N)N)c1ccc(NC(=O)c2cc3cccc(N)c3[nH]2)cc1 [Compound 77] | 1000 to 10000
COc1ccc2oc(C(=O)Nc3ccc(/C(C)=N/NC(=N)N)cc3)cc2c1 [Compound 78] | 100 to 300
C/C(=N\NC(=N)N)c1ccc(NC(=O)c2ccc3c(c2)CCC/C3=N\NC(=N)N)cc1 [Compound 79] | 1000 to 10000
C/C(=N\NC(=N)N)c1ccc2[nH]c(C(=O)Nc3ccc4[nH]ccc4c3)cc2c1 [Compound 80] | 300 to 1000
C/C(=N\NC(=N)N)c1ccc2[nH]c(C(=O)Nc3ccc4cc[nH]c4c3)cc2c1 [Compound 81] | 300 to 1000
COc1ccc2nc(C(=O)Nc3ccc(/C(C)=N/NC(=N)N)cc3)sc2c1 [Compound 82] | 1000 to 10000
C/C(=N\NC(=N)N)c1ccc(NC(=O)c2cc3ccc(N)cc3[nH]2)cc1 [Compound 83] | 1000 to 10000
C/C(=N\NC(=N)N)c1ccc(NC(=O)c2cc3cccc([N+](=O)[O-])c3[nH]2)cc1C [Compound 84] | 1000 to 10000
C/C(=N\NC(=N)N)c1ccc(NC(=O)c2cc3cccc(C(F)(F)F)c3[nH]2)cc1 [Compound 85] | > 10000
N=C(N)N/N=C1\CCCc2cc(NC(=O)c3cc4cccc([N+](=O)[O-])c4[nH]3)ccc21 [Compound 86] | < 100
C/C(=N\NC(=N)N)c1ccc(NC(=O)c2cc3cc(F)ccc3[nH]2)cc1 [Compound 87] | 1000 to 10000
CC(=O)Nc1ccc2cc(C(=O)Nc3ccc(/C(C)=N/NC(=N)N)cc3)[nH]c2c1 [Compound 88] | 300 to 1000
C/C(=N\NC(=N)N)c1ccc(NC(=O)c2cc3ccc(S(C)(=O)=O)cc3[nH]2)cc1 [Compound 89] | 300 to 1000
CCCOc1ccc2cc(C(=O)Nc3ccc(/C(C)=N/NC(=N)N)cc3)[nH]c2c1 [Compound 90] | 1000 to 10000
CSc1ccc2cc(C(=O)Nc3ccc(/C(C)=N/NC(=N)N)cc3)[nH]c2c1 [Compound 91] | 300 to 1000
CCNc1ccc2cc(C(=O)Nc3ccc(/C(C)=N/NC(=N)N)cc3)[nH]c2c1 [Compound 92] | 300 to 1000
C/C(=N\NC(=N)N)c1ccc(NC(=O)c2cc3ccc(C)cc3[nH]2)cc1 [Compound 93] | 300 to 1000
C/C(=N\NC(=N)N)c1ccc(NC(=O)c2cc3ccc(Cl)cc3[nH]2)cc1 [Compound 94] | 300 to 1000
C/C(=N\NC(=N)N)c1ccc(NC(=O)c2cc3cccc(NS(N)(=O)=O)c3[nH]2)cc1 [Compound 95] | 1000 to 10000
N=C(N)N/N=C1\CCc2cc(NC(=O)c3cc4cccc([N+](=O)[O-])c4[nH]3)ccc21 [Compound 96] | 1000 to 10000

Structure (SMILES) | EC50 [nM]
C/C(=N\NC(=N)N)c1ccc(NC(=O)c2cc3c(C)cccc3[nH]2)cc1 [Compound 97] | 1000 to 10000
COc1cc2cc(C(=O)Nc3ccc(/C(C)=N/NC(=N)N)cc3)[nH]c2cc1NC(C)=O [Compound 98] | 1000 to 10000
COc1cc2cc(C(=O)Nc3ccc(/C(C)=N/NC(=N)N)cc3)[nH]c2cc1N [Compound 99] | 300 to 1000
C/C(=N\NC(=N)N)c1ccc(NC(=O)c2nc3ccccc3[nH]2)cc1 [Compound 100] | > 10000
C/C(=N\NC(=N)N)c1ccc2[nH]c(C(=O)Nc3ccc4ncccc4c3)cc2c1 [Compound 101] | < 100
C/C(=N\NC(=N)N)c1ccc2[nH]c(C(=O)Nc3cc(C)ccn3)cc2c1 [Compound 102] | 1000 to 10000
C/C(=N\NC(=N)N)c1ccc2[nH]c(C(=O)Nc3ccc(C)cn3)cc2c1 [Compound 103] | 1000 to 10000
C/C(=N\NC(=N)N)c1ccc2[nH]c(C(=O)Nc3ccccn3)cc2c1 [Compound 104] | > 10000
COc1ccc2[nH]c(C(=O)Nc3ccc4c(c3)CCC/C4=N\NC(=N)N)cc2c1 [Compound 105] | 300 to 1000
C/C(=N\NC(=N)N)c1ccc(NC(=O)c2cn3ccccc3n2)cc1 [Compound 106] | 1000 to 10000
C/C(=N\NC(=N)N)c1ccc(NC(=O)c2cc3c(ccc4ccccc43)[nH]2)cc1 [Compound 107] | 1000 to 10000
C/C(=N\NC(=N)N)c1ccc2[nH]c(C(=O)Nc3cccc4[nH]ccc34)cc2c1 [Compound 108] | 1000 to 10000
C/C(=N\NC(=N)N)c1ccc2[nH]c(C(=O)Nc3ccc4[nH]c(C)cc4c3)cc2c1 [Compound 109] | 300 to 1000
COc1ccc2[nH]c(C(=O)Nc3ccc4c(c3)CC/C4=N\NC(=N)N)cc2c1 [Compound 110] | > 10000
C/C(=N\NC(=N)N)c1ccc2[nH]c(C(=O)Nc3cccc(N)c3)cc2c1 [Compound 111] | 300 to 1000
C/C(=N\NC(=N)N)c1ccc2[nH]c(C(=O)Nc3ccc(N)cc3)cc2c1 [Compound 114] | 1000 to 10000
C/C(=N\NC(=N)N)c1ccc2[nH]c(C(=O)Nc3ccc(C(N)=O)cc3)cc2c1 [Compound 115] | 100 to 300
CC(=NNC(N)=NO)c1ccc(NC(=O)Nc2ccc(C(C)=NNC(N)=NO)cc2)cc1 [Compound 116] | < 100

Source: US8765802B2, “Kinase inhibitors, compositions thereof, and methods of use therewith” (Provid Pharmaceuticals, Inc., priority 2007, dated 2014)
